Measured values reported in patent US4672054A, “Process for the preparation of angiotensin-II analogues substituted in the 1-, 5- and 8- positions” (Richter Gedeon Vegyeszeti Gyar Rt., priority 1984, dated 1987).
Where two headings read alike, the source gives them in different places. Where a SMILES comes first, the peptide text is derived from it. [ ]: non-standard residue; d: D form. The star is where a group is joined. Gly(cPent) = N[C@H](C(=O)O)C1CCCC1; Chg = N[C@H](C(=O)O)C1CCCCC1; Lac = C[C@H](O)C(=O)O; Glycolyl = O=C(CO)*; Sar = CNCC(=O)O

How the values were obtained:
[1] = tested on: isolated rabbit aorta vessel preparate; assay type: cell-based
Experimental: (§1) The octapeptides of the formula (I) are purified in a manner known per se, preferably by cellulose ion exchange chromatography. As a result, compounds are generally obtained as lyophilized powders, which can be converted into the corresponding acid addition salts or complexes. The inhibiting effect of the compounds of the formula (I) on the aldosterone production and vasoconstriction was tested in in vitro experiments.
In the latter test the inhibition of vasoconstriction induced by AII is measured on isolated rabbit aorta vessel preparate [J. Pharmacol. Exp. Ther., 108, 129 (1953)].

aldosterone production = assay type: cell-based
Experimental: as §1

awake rats [2] = experiment: hypotensive activity in vivo on awake rats (modified method by Pals), AII challenge; design: species or system rat; settings: peptide 1 mg/kg subcutaneously, 1.0 μg/kg AII intravenously from the fifth minute over three hours
Experimental: The hypotensive activity of the new compounds was tested in vivo on awake rats, according to the modified method by Pals [Circ. Res. 29, 664 (1971)].
The results are illustrated in FIG. 1.
At first a dose--effect curve was registered for AII on rats. The peptides were administered subcutaneously, in 1 mg/kg doses. In the fifth minute after administration and repeatedly in the next three hours 1.0 μg/kg of AII was added intravenously. The statistical evalulation was performed by variancy analysis.

aldosterone release = settings: Eur. J. Clin. Pharm., 23, 7 (1982); cited from earlier work
[3] = Eur. J. Clin. Pharm., 23, 7 (1982); cited from earlier work
awake rats [4] = experiment: temporary (initial) hypertensive activity on awake rats; assay type: in vivo, rat; settings: administered into the jugular vein every 20 minutes
Experimental: The temporary hypertensive activity of the AII analogues was tested also on awake rats. AII analogues were administered into the jugular vein in every 20 minutes. The results were evaluated by variancy analysis. The comparative results obtained on [Sar^1, Chg^5, Lac^8 ]-AII are shown on FIG. 2.

Molecule | vasoconstriction inhibition, pA2 [1] | inhibition of aldosterone production pA2 (aldosterone production) | other results
CNCC(=O)N[C@@H](CCCNC(=N)N)C(=O)N[C@H](C(=O)N[C@@H](Cc1ccc(O)cc1)C(=O)N[C@H](C(=O)N[C@@H](Cc1c[nH]cn1)C(=O)N1CCC[C@H]1C(=O)N[C@@H](C)C(=O)O)C1CCCCC1)C(C)C [Sar^1, Chg^5, Ala^8 --AII, Sar^1, Chg^5, Ala^8 -AII] | 11.18 | 9.981 | duration of hypotensive activity compared with Saralasin (FIG. 1) (awake rats [2]): signicantly more prolonged hypotensive activity than Saralasin
CC(C)[C@H](NC(=O)[C@H](CCCNC(=N)N)NC(=O)[C@H](C)O)C(=O)N[C@@H](Cc1ccc(O)cc1)C(=O)N[C@H](C(=O)N[C@@H](Cc1c[nH]cn1)C(=O)N1CCC[C@H]1C(=O)O[C@@H](C)C(=O)O)C1CCCC1 [Lac^1, Cpg^5, Lac^8 --AII] (H-[Lac]RVY[Gly(cPent)]HP[Lac]-OH) | 8.52 | 8.392 | 
Sar^1, HMV^8 --AII [reference compound] |  |  | inhibition of aldosterone production pA2 (aldosterone production; in vitro, pA2): 10.589
CNCC(=O)N[C@@H](CCCNC(=N)N)C(=O)N[C@H](C(=O)N[C@@H](Cc1ccc(O)cc1)C(=O)N[C@H](C(=O)N[C@@H](Cc1c[nH]cn1)C(=O)N1CCC[C@H]1C(=O)O[C@@H](C)C(=O)O)C1CCCC1)C(C)C [Sar^1, Cpg^5, Lac^8 --AII] (H-[Sar]RVY[Gly(cPent)]HP[Lac]-OH) | 11.09 | 9.649 | 
CC(C)[C@H](NC(=O)[C@H](CCCNC(=N)N)NC(=O)CO)C(=O)N[C@@H](Cc1ccc(O)cc1)C(=O)N[C@H](C(=O)N[C@@H](Cc1c[nH]cn1)C(=O)N1CCC[C@H]1C(=O)O[C@@H](C)C(=O)O)C1CCCCC1 [HOAc^1, CHg^5, Lac^8 --AII] (Glycolyl-RVY[Chg]HP[Lac]-OH) | 9.53 | 8.614 | 
CNCC(=O)N[C@@H](CCCNC(=N)N)C(=O)N[C@H](C(=O)N[C@@H](Cc1ccc(O)cc1)C(=O)N[C@H](C(=O)N[C@@H](Cc1c[nH]cn1)C(=O)N1CCC[C@H]1C(=O)N[C@@H](C)C(=O)O)C1CCCC1)C(C)C [Sar^1, Cpg^5, Ala^8 --AII] | 9.42 | 9.933 | 
CC[C@H](C)[C@H](NC(=O)[C@@H]1CCCN1C(=O)[C@H](Cc1c[nH]cn1)NC(=O)[C@@H](NC(=O)[C@H](Cc1ccc(O)cc1)NC(=O)[C@@H](NC(=O)[C@H](CCCNC(=N)N)NC(=O)CON)C(C)C)[C@@H](C)CC)C(=O)O [OGly^1, Ile^8 --AII, reference compound] |  | 7.94 | 
CC[C@H](C)[C@H](NC(=O)[C@H](Cc1ccc(O)cc1)NC(=O)[C@@H](NC(=O)[C@H](CCCNC(=N)N)NC(=O)CNC)C(C)C)C(=O)N[C@@H](Cc1c[nH]cn1)C(=O)N1CCC[C@H]1C(=O)O[C@@H](C)C(=O)O [Sar^1, Lac^8 --AII, reference compound] | 11.02 | 9.649 | 
[Sar^1, Thr^8 ]-AII |  |  | aldosterone release inhibiting effect (aldosterone release): no aldosterone release inhibiting effect; agonistic activity [3]: small
CCOC(=O)[C@H](C)OC(=O)[C@@H]1CCCN1C(=O)[C@H](Cc1c[nH]cn1)NC(=O)[C@@H](NC(=O)[C@H](Cc1ccc(O)cc1)NC(=O)[C@@H](NC(=O)[C@H](CCCNC(=N)N)NC(=O)CNC)C(C)C)[C@@H](C)CC [Sar^1, Lac^8 --AII--OEt, reference compound] |  | 9.27 | 
CNCC(=O)N[C@@H](CCCN=C(N)N)C(=O)N[C@H](C(=O)N[C@@H](Cc1ccc(O)cc1)C(=O)N[C@H](C(=O)N[C@@H](Cc1cnc[nH]1)C(=O)N1CCC[C@H]1C(=O)N[C@@H](C)C(=O)O)C(C)C)C(C)C [Sar^1, Val^5, Ala^8 --AII, Saralasin, reference compound] |  |  | vasoconstriction inhibition, pA2 ([1]; AII-induced vasoconstriction, isolated rabbit aorta, pA2): 11.10; inhibition of aldosterone production pA2 (aldosterone production; in vitro, pA2): 9.634
CC[C@H](C)[C@H](NC(=O)[C@H](Cc1ccc(O)cc1)NC(=O)[C@@H](NC(=O)[C@H](CCCNC(=N)N)NC(=O)CNC)C(C)C)C(=O)N[C@@H](Cc1c[nH]cn1)C(=O)N1CCC[C@H]1C(=O)N[C@H](C(=O)OC)[C@@H](C)CC [Sar^1, Ile^8 --AII--OMe, reference compound] |  | 8.98 | 
CNCC(=O)N[C@@H](CCCNC(=N)N)C(=O)N[C@H](C(=O)N[C@@H](Cc1ccc(O)cc1)C(=O)N[C@H](C(=O)N[C@@H](Cc1c[nH]cn1)C(=O)N1CCC[C@H]1C(=O)O[C@@H](C)C(=O)O)C1CCCCC1)C(C)C [Sar^1, Chg^5, Lac^8 --AII] (H-[Sar]RVY[Chg]HP[Lac]-OH) | 11.29 | 10.390 | 
CNCC(=O)N[C@@H](CCCN=C(N)N)C(=O)N[C@H](C(=O)N[C@@H](Cc1ccc(O)cc1)C(=O)N[C@H](C(=O)N[C@@H](Cc1c[nH]cn1)C(=O)N1CCC[C@H]1C(=O)O[C@@H](C)C(=O)O)C1CCCCC1)C(C)C [Sar^1, Chg^5, Lac^8 --AII] (H-[Sar]RVY[Chg]HP[Lac]-OH) |  |  | initial hypertensive activity compared with Saralasin (FIG. 2) (awake rats [4]): significantly lower initial hypertensive activity than Salarasine
